According to paper PMC5459885, “Relaxin-Family Peptide Receptors 1 and 2 Are Fully Functional in the Bovine” (Frontiers in Physiology, 2017):
Entries after “also recorded” stand apart in the source; their conditions may differ. Blank lines part the entries; values can stand above or below the molecule they belong to.

Key:
bRXFP1 = assay: cAMP production, HEK293T cells transiently transfected with bRXFP1; assay type: cell-based, bovine; conditions: for EC50: bRXFP1, transient transfection HEK293T, 20 min stimulation, cAMP by TRFIA, three-parameter non-linear regression, pRLN converted to nM assuming MW 6 kD and purity 85%, bINSL3 curve had not reached an asymptote at highest concentration; for stimulation of cAMP production: bRXFP1, within the range of concentration applied (Figure 9A)
Text: (§1) Preliminary studies, prior to the publication of the bovine genome project, had employed heterologous RT-PCR primers, derived from human sequence information, together with RNA from selected bovine tissues. Initial sequence information obtained was subsequently fully confirmed by the bovine genome project, which is used here for reference. Having confirmed by RT-PCR the correct sequences for the full-length functional bRXFP1 and bRXFP2 transcripts, expression constructs were generated, whereby the signal peptides of the two receptor sequences were replaced by the signal peptide-encoding sequence from the bovine prolactin gene, together with an intermediate short FLAG sequence, exactly as used previously for the expression of the human RXFP1 and RXFP2, and other G-protein coupled receptors (Hsu et al., [2000], [2002]). The two final bovine constructs were generated from assembled multiple oligonucleotides (custom gene synthesis by GeneArt, Regensburg, Germany), their sequences confirmed, and inserted into the vector pcDNA3.1/Zeo(+) (Invitrogen) for expression.
(§2) For transfection, the Neon electroporation system (Invitrogen) was used: the bRXFP1 or bRXFP2 expression plasmids were mixed with HEK 293T cells in a ratio of ~0.2 μg DNA/50,000 cells/well (48-well plate), and pulsed at 1,300 V for 30 ms to transfect the DNA into the cells. Plasmids were allowed to express for 24 h with the transfected cells cultured in DMEM/F12 (1:1) at 37°C with 5% CO2. In parallel, HEK 293T cells which had been permanently transfected with human RXFP1 or human RXFP2 (Heng et al., [2008]) were plated at 50,000 cells/well in a 48-well plate, and cultured overnight in DMEM/F12 (1:1) with 10% bovine fetal serum, 2 mM L-glutamine and 1% Penicillin-Streptomycin at 37°C with 5% CO2.
(§3) For the transient and permanently transfected HEK 293T cells and the primary myometrial (6,000 cells/well) and theca cells (20,000 cells/well), after the initial pre-culture period (as above) medium was changed and supplemented or not with 1 mM IBMX (3-isobutyl-1-methylxanthine; Sigma) as indicated (30 min for myometrial cells, 10 min for theca cells). Following this pre-incubation, cells were supplemented or not with various peptides, also as indicated in the figure legends, and incubation continued for a further 20 min. Total cAMP was extracted from the combined cells and culture medium from each well and measured by time-resolved fluorescent immunoassay (TRFIA) as described in Anand-Ivell et al. ([2007]). cAMP production by the transfected HEK 293 cells was measured directly (range1–243 pmol/ml); cAMP from primary myometrial and theca cells made use of the more sensitive TRFIA employing sample acetylation (detection range 0.04–9.72 pmol/ml).
(§4) All data were analyzed and plotted using GraphPad Prism 6. The EC50 values were calculated by non-linear regression of log (agonist) against response (three parameter). All column data were analyzed by ANOVA followed by Neuman-Keuls post-hoc test.

bRXFP2 = assay: cAMP production, HEK293T cells transiently transfected with bRXFP2; assay type: cell-based, bovine; conditions: for stimulation of cAMP production: bRXFP2 (Figure 9B, Table 1); for EC50: bRXFP2, transient transfection HEK293T, 20 min stimulation, cAMP by TRFIA, three-parameter non-linear regression, pRLN converted to nM assuming MW 6 kD and purity 85%
Text: as §1, §2, §3, §4

bovine myometrial cells = assay: cAMP production in primary bovine myometrial cells; assay type: cell-based; conditions: 20 min, 1 mM IBMX (Figure 8A)
Procedure: Bovine tissues were obtained from the local slaughterhouse. Tissue collection was in accordance with German, British and European laws and provisions for ethical regulation. Cumulus-oocyte complexes (COCs) were collected and categorized exactly as in Janowski et al. ([2012]). For oocyte RNA preparation, COCs were mechanically denuded using a glass pipette followed by a 2 min trypsin incubation (1x Trypsin-EDTA solution; T4174; Sigma, Deisenhofen, Germany) to remove residual cumulus cells, then frozen at −80°C. Bovine myometrial cells were prepared from excised uteri exactly as in Heng et al. ([2008]). The isolated myometrial cells were plated at 6,000 cells/well in a 48-well plate and cultured at 37°C with 5% CO2 for 5 days before stimulation. Bovine ovaries without an obvious corpus luteum were selected for the isolation of granulosa and theca interna cells from mid-phase antral follicles (ca. 6–10 mm diameter) using standard procedures (Holtorf et al., [1989]; Bathgate et al., [1999]). Follicular fluid, including COCs and granulosa cells, was aspirated from the follicles, and collected in granulosa culture medium (DMEM/F-12 (1:1) with 1% bovine fetal serum, 1% antibiotic-antimycotic (ABAM), 2 mM L-glutamine). After manually removing the COCs, the granulosa cells were harvested by centrifugation (150 g, 10 min) and rinsed once with culture medium as above. Four to six millimeters follicles were obtained by dissection. The theca interna layer of mid-phase antral follicles was peeled off and digested with collagenase IV (1 mg/ml) in Medium 199, including trypsin inhibitor (100 μg/ml) at 38°C for 1 h. The isolated theca cells were collected and washed in Medium 199 with 1% ABAM. […]
as §3, with “Following this pre-incubation, cells were supplemented or not with various peptides, also as indicated in the figure legends, and incubation continued for a further 20 min.” left out
as §4

bovine luteal cells = bovine luteal cells in culture; ref Musah et al., 1990; cited from earlier work
Text: (§5) For many years there has been a controversy surrounding the existence or not of relaxin in ruminants, including cattle, sheep, and goats (Hartung et al., [1995]). A RLN2 homologous molecule is definitely expressed at the mRNA and/or protein levels in related ungulates, such as pigs, camels, llamas, and horses (James et al., [1977]; Stewart et al., [1991]; Bravo et al., [1996]; Hombach-Klonisch et al., [2000]; ncbi database: www-ncbi-nlm-nih-gov).

beef cows = conditions: applied locally or systemically to beef cows at term; ref Musah et al., 1987; cited from earlier work
Text: as §5

hRXFP1 = assay: cAMP production, HEK 293T cells permanently transfected with hRXFP1; assay type: cell-based, human; conditions: hRXFP1, permanently transfected HEK 293T, 20 min stimulation, cAMP by TRFIA, three-parameter non-linear regression, pRLN converted to nM assuming MW 6 kD and purity 85%
Procedure: as §2, §3, §4

hRXFP2 = assay: cAMP production, HEK 293T cells permanently transfected with hRXFP2; assay type: cell-based, human; conditions: for EC50: hRXFP2, permanently transfected HEK 293T, 20 min stimulation, cAMP by TRFIA, three-parameter non-linear regression, pRLN converted to nM assuming MW 6 kD and purity 85%, its curve had not reached an asymptote at highest concentration
Procedure: as §2, §3, §4

bovine sperm = conditions: ref Miah et al., 2011; cited from earlier work
Text: as §5

RXFP1 = conditions: ref Bathgate et al., 2006; cited from earlier work
Text: The relaxin family of peptide hormones includes, besides relaxin (RLN2), also relaxin 3 (RLN3), insulin-like peptide 3 (INSL3), INSL5, and INSL6. Additionally, within higher primates and humans there is RLN1 and INSL4. […] RLN2 and INSL3 on the other hand are usually expressed in reproductive tissues of both sexes and ...

bovine theca cells = assay: cAMP production in primary bovine theca cells; assay type: cell-based; conditions: 20 min, 1 mM IBMX (Figure 8B,C)
Procedure: Bovine tissues were obtained from the local slaughterhouse. Tissue collection was in accordance with German, British and European laws and provisions for ethical regulation. Cumulus-oocyte complexes (COCs) were collected and categorized exactly as in Janowski et al. ([2012]). For oocyte RNA preparation, COCs were mechanically denuded using a glass pipette followed by a 2 min trypsin incubation (1x Trypsin-EDTA solution; T4174; Sigma, Deisenhofen, Germany) to remove residual cumulus cells, then frozen at −80°C. Bovine myometrial cells were prepared from excised uteri exactly as in Heng et al. ([2008]). […]
as §3, with “Following this pre-incubation, cells were supplemented or not with various peptides, also as indicated in the figure legends, and incubation continued for a further 20 min.” left out, “pmol/ml). […]” for “pmol/ml).”

- EC50 (bRXFP1): 48.7 nM
- EC50 (bRXFP2): 27.3 nM
- EC50 (hRXFP1): 0.9 nM
- EC50 (hRXFP1; listed as human RLN): < 1 nM
- EC50 (hRXFP2): 53.9 nM
Molecule: recombinant human relaxin [rhRLN]
- stimulation of cAMP production (bRXFP1): showed any stimulation within the range of concentration applied
- stimulation of cAMP production (bRXFP2): could stimulate at very high concentration

- EC50 (bRXFP2): 0.6 nM
- EC50 (hRXFP2): 0.7 nM
B1: human INSL3 (protein, UniProt P51460 21-55; P51460 106-131, looked up)
Insulin-like 3 B chain: LGPAPTPEMREKLCGHHFVRALVRVCGGPRWSTEA
Insulin-like 3 A chain: AAATNPARYCCLSGCTQQDLLTLCPY
notes: human insulin-like peptide 3

- EC50 (bRXFP2): 0.7 nM
- EC50 (bRXFP2; listed as bovine INSL3): < 1 nM
- EC50 (hRXFP2): 0.6 nM
B2: bovine INSL3 (protein, UniProt O77801 22-66; O77801 27-66; O77801 107-132, looked up)
Insulin-like 3 B' chain: GPAAAQEAPEKLCGHHFVRALVRLCGGPRWSSEEDGRPVAGGDRE
Insulin-like 3 B chain: QEAPEKLCGHHFVRALVRLCGGPRWSSEEDGRPVAGGDRE
Insulin-like 3 A chain: ATAINPARHCCLSGCTRQDLLTLCPH
notes: bovine insulin-like peptide 3, cognate ligand of bovine RXFP2
- stimulation of cAMP production (bRXFP2): effective at low concentrations
- cAMP production (bovine myometrial cells; listed as INSL3): significant increase in cAMP
- cAMP production (bovine myometrial cells; listed as bovine INSL3): significant stimulation was observed at all concentrations applied
- cAMP production (bovine theca cells): dose-dependent increase in cAMP; also recorded: able significantly to stimulate cAMP production in a dose-dependent manner

Second part, the molecule before the results:

Molecule: porcine relaxin [pRLN]
- EC50 (bRXFP1): 10.8 nM
- stimulation of cAMP production (bRXFP1): showed any stimulation within the range of concentration applied
- stimulation of cAMP production (bRXFP2): could stimulate at very high concentration
- EC50 (bRXFP2): 10.5 nM
- cAMP production (bovine myometrial cells): significant stimulation was observed at all concentrations applied
- oxytocin production (bovine luteal cells): significantly suppressed oxytocin production
- softening and dilatation response (beef cows): elicited a classic softening and dilatation response, thereby influencing calving period
- EC50 (hRXFP1): 0.4 nM
- EC50 (hRXFP1; listed as porcine RLN): < 1 nM
- EC50 (hRXFP2): > 12 nM

Molecule: relaxin
- cAMP production (bovine myometrial cells): significant increase in cAMP
- sperm functional parameters (bovine sperm): significantly to affect bovine sperm functional parameters

Molecule: relaxin 3 [hRLN3]
- EC50 (bRXFP1): 97.9 nM
- stimulation of cAMP production (bRXFP1): showed any stimulation within the range of concentration applied
- stimulation of cAMP production (bRXFP2): unable to stimulate
- stimulation of cAMP production (bRXFP2; listed as RLN3): but not RLN3, could stimulate at very high concentration
- EC50 (hRXFP1): 14.6 nM
- affinity at RXFP1 (RXFP1): reduced affinity
- stimulation of cAMP production (hRXFP2; hRXFP2 (Table 1)): unable to stimulate
